The record followed here is patent US8541455B2, “Derivatives of 2-pyridin-2-yl-pyrazol-3(2H)-one, preparation and therapeutic use thereof as HIF activators” (Sanofi, priority 2008, dated 2013).

In series [1] the test system is EPO secretion by Hep3B cells. In words: Measurement of the secretion of EPO by Hep3B hepatocytes (ELISA on supernatant). Type of series: cell-based. The conditions noted are these: Homo sapiens, 18 hours incubation under normoxia, EPO in supernatant, 50% of the maximum response of this same compound. The source says: (§1) 2. Measurement of the Secretion of VEGF and EPO by Hep3B Hepatocytes 2.1. Object
(§2) HIF is a transcription factor involved in the adaptation of cells to hypoxia. Since the genes activated by HIF are involved in the adaptive response of cells to hypoxia and of tissues to ischaemia, the object is to identify and characterize compounds that stabilize HIF1-alpha in cells in order to amplify or mimic its beneficial effect. HIF1-alpha was identified following the analysis of the EPO gene promoter, which makes this protein one of the first markers of HIF1-alpha activation. Moreover, VEGF is also identified in the literature as one of the main markers of HIF activation. It is for this reason that measurement of these two proteins was selected for characterizing compounds that are HIF activators in Hep3B cells.
(§3) The object was thus to develop a sensitive screening test, adaptable to 96-well plates, for directly measuring the amount of VEGF and EPO in the supernatant of the Hep3B cells (cells derived from a human hepatocarcinoma) in response to the potential HIF activators.
(§4) The test is an ELISA test for measuring VEGF and EPO in the supernatant of Hep3B cells treated under hypoxia or with deferoxamine as controls or with the potential HIF activators. The test was adapted to a 96-well plate, allowing greater compound screening capacity.
(§5) • 2.3.1 Experiment Plan • 1) Inoculation of the cells on D0 • 2) Adherence for 6 hours under normoxia • 3) Preparation and addition of the products (Biomek 2000 and FX) • 4) Incubation under normoxia for 18 hours • 5) EPO and VEGF assay in the supernatant on D+1 • 2.3.2 Inoculation of the Cells
(§6) The cells are subcultured into 100 μl of culture medium (10% FCS) in black, opaque-bottomed 96-well plates (reference Costar 3916) at 30 000 cells/well, with Multidrop. • 2.3.3 Treatment of the Cells
(§7) The test products are prepared at 10^−2 M in 100% DMSO and then diluted to […] in medium containing 0.1% FCS (6 μl in 194 μl of MEM). 200 μl of each compound are deposited in column 12 of a 96-well plate. Dilution ranges from […] to 3×10^−8M are prepared with Biomek 2000 (programme: range of 9 points in series). 100 μl of MEM 0.1% FCS and Deferoxamine 5×10^−3M are added as controls to column 3 and, respectively, to wells A,B,C,D and wells E,F,G,H • DL Plate Distribution in Cell Plates
(§8) The medium of the cells inoculated the day before into 96-well plates is changed for 90 μl of medium containing 0.1% FCS and 10 μl are distributed with FX 96 from the 96-well DL plates to the cell plates.
(§9) The cell plates thus treated are placed for 18 hours in an incubator at 37° C. (ambient O2, 6% CO2).
(§10) The supernatants (80 μl) of the Hep3B cells in the 96-well plates treated with the potential HIF activators are recovered with a multichannel pipette for simultaneous assay of the VEGF and the EPO by ELISA according to the supplier's instructions (Kit EPO Mesoscale (ref K15122B-2)).
(§11) The activating activity of a compound with respect to HIF is given by the concentration that produces 50% of the maximum response of this same compound in Table IV below.

The next series concerns HIF1-alpha. In words: Measurement of the stabilization of HIF1-alpha in HEKEA cells (beta-galactosidase complementation, luminescence). It is filed as cell-based, human. Conditions: HEKEA_HIF1-alphaPLBL cells, 6 hours incubation under normoxia; concentration that produces 50% of the maximum response of this same compound. An excerpt:
Furthermore, a subject of the invention is also a uniform test process for the direct measurement by beta-galactosidase complementation of the amount of HIF1-alpha protein in the nucleus of cells, preferably HEK cells, after treating the said cells with one or more test compounds, which consists in: • (a) inoculating, preferably in 384-well plates, the said cells in a suitable culture medium, preferably 1% foetal calf serum (abbreviated as FCS); • (b) adding the test compound(s) at a suitable concentration in a suitable solvent to the cells previously inoculated in the said culture medium; preferably the test compounds are diluted in 0.1% FCS; • (c) incubating the said cells thus prepared in an indicator at about 37° C., advantageously for about 6 hours; • (d) lysing the cells with a lysis buffer containing a chemiluminescent substrate for beta-galactosidase; • (e) incubating in the absence of light, before reading and measuring the luminescence, which is a function of the beta-galactosidase activity.
Many tests exist describing the indirect measurement of the activity of HIF via reporter gene systems (HRE-luciferase) or via the measurement of HIF-induced proteins (for example VEGF or EPO). Furthermore, the only tests that allow direct measurement of the amount of HIF1-alpha protein in cells are tests using antibodies, for instance Western blotting comprising phases of cell extraction (total lysates or nuclear extracts) that are consuming in terms of cells and time, thus limiting the compound screening capacity. The object was thus to develop a sensitive screening test, adaptable to 384-well plates, for directly measuring the amount of HIF1-alpha protein in the nucleus of cells. This test was established in HEK cells ([…]).
The test is a cell test based on the principle of enzyme complementation, the enzyme used herein being beta-galactosidase. HEKEA cells are HEK cells stably expressing, and restricted in their nucleus, mutant beta-galactosidase (omega fragment, also known as EA) (line sold by DiscoverX). This construct makes it possible to obtain beta-galactosidase activity only when the protein comprising the Prolabel complementation fragment has migrated into the nucleus.
The protein of interest comprising the Prolabel fragment is in this case an HIF1-alpha or HIF1-alpha mutated at the two prolines 402 and 564 replaced with alanines, is C-terminal fused via molecular biology (DiscoverX vector sold by Clontech) with the small complementation peptide fragment (Prolabel or ED, about 4 kDa). The vector coding for the chimeric protein HIF1-alpha_Prolabel is then transfected into HEKEA cells to obtain stable clones (HEKEA_HIF1-alphaPLBL).
The amount of C-terminal Prolabel-“labelled” HIF1-alpha protein obtained after treating the cells to hypoxia or compounds that are potentially HIF activators is measured by adding to the cells a lysis buffer containing a chemiluminescent substrate for beta-galactosidase.
The measurement of the beta-galactosidase activity will be proportional to the amount of Prolabel and thus of HIF1-alpha that has migrated into the nucleus of the cells.
• 1.3.1 Experiment Plan • 1) Inoculation of the cells on D0 • 2) Adherence for 24 hours under normoxia • 3) Preparation and addition of the products (Biomek 2000 and FX) on D+1 • 4) Incubation under normoxia for 6 hours • 5) Reading of the plates (by luminescence)
The cells are inoculated with Multidrop in white, opaque-bottomed 384-well plates (Greiner ref 3704), in 30 μl of culture medium (1% FCS) at 10 000 cells/well (cell plate). • 1.3.3 Treatment • Preparation of the Dilution Plate (DL Plate)
The test products are prepared at 3×10^−2 M in 100% DMSO and then diluted to 3×10^−4 M in medium containing 0.1% FCS (10 μl in 990 μl of MEM). They are then deposited by hand into column 12 of a round-bottomed 96-well plate (200 μl of each compound) known as the dilution plate (dl). […]

In series [2] the test system is VEGF secretion by Hep3B cells. In words: Measurement of the secretion of VEGF by Hep3B hepatocytes (ELISA on supernatant). The conditions noted are these: Homo sapiens, 18 hours incubation under normoxia, VEGF in supernatant, 50% of the maximum response of this same compound. It is filed as cell-based.
Excerpt: as §1, §2, §3, §4, §5, §6, §7, §8, §9, §10, §11
A general note: ELISA stands for enzyme-linked immunosorbent assay.

For orientation: EC50 means the concentration at which the effect is half-maximal. A high value points to weaker potency. Broadly, the melting point is the temperature, or range, at which the solid turns liquid.

Where a name gives a salt, the structure may show the parent alone.

`CCN(c1ccccc1)S(=O)(=O)c1ccc(-n2[nH]c(C)c(Cc3ccc(Cl)cc3Cl)c2=O)nc1` [Compound 14] yielded a melting point of 178 °C. Further, in series [1], the midpoint of the response, the EC50, lay at 0.3 µM. In the series on HIF1-alpha, this compound came in with a half-maximal effective concentration (EC50) of 3.8 µM.
As to `CCN(c1ccccc1)S(=O)(=O)c1ccc(-n2[nH]c(C)c(Cc3c(F)cccc3Cl)c2=O)nc1` [Compound 20, 6-[4-(2-chloro-6-fluorobenzyl)-3-methyl-5-oxo-2,5-dihydro-1H-pyrazol-1-yl]-N-ethyl-N-phenylpyridine-3-sulfonamide], the concentration giving a half-maximal response (EC50) in series [1] turned out to be 1 µM; in series [2] it was 1.1 µM.
In the case of `CCN(c1ccccc1)S(=O)(=O)c1ccc(-n2[nH]c(C)c(Cc3cccc(OCCOC)c3)c2=O)nc1` [Compound 38, N-ethyl-6-{4-[3-(2-methoxyethoxy)benzyl]-3-methyl-5-oxo-2,5-dihydro-1H-pyrazol-1-yl}-N-phenylpyridine-3-sulfonamide], the melting point was 126 °C. Also, in series [1], a half-maximal effect (EC50) was put at 1 µM. Besides, the response with HIF1-alpha was half-maximal at 4.7 µM (EC50).
In turn, `CCN(c1ccccc1)S(=O)(=O)c1ccc(-n2[nH]c(C)c(Cc3ccc(S(C)(=O)=O)cc3)c2=O)nc1` [Compound 39] had a melting point of 224 °C. Also, in series [1], the EC50 was 2 µM. Moreover, it took 1.8 µM to reach a half-maximal effect in the series on HIF1-alpha (EC50).
`CCN(c1ccccc1)S(=O)(=O)c1ccc(-n2[nH]c(C)c(Cc3ccccc3)c2=O)nc1` [Compound 42]: the melting point is 212 °C. The compound further had a 50% effective concentration (EC50) in series [1] of 1.1 µM. Further, it took 4.8 µM to reach a half-maximal effect in the series with HIF1-alpha (EC50). In addition, a half-maximal response in series [2] (EC50) required 1.3 µM.
Turning to `CCN(c1ccccc1)S(=O)(=O)c1ccc(-n2[nH]c(C)c(Cc3cccnc3)c2=O)nc1` [Compound 43], the EC50 in series [1] was found to be 1.5 µM; with HIF1-alpha, 3.1 µM; in series [2], 1.7 µM.
Consider `CCN(c1ccccc1)S(=O)(=O)c1ccc(-n2[nH]c(C)c(Cc3cc(OC)ccc3OC)c2=O)nc1` [Compound 44], for which the melting point came out at 140 °C. Further, the 50% effective concentration (EC50) in series [1] worked out at 1.9 µM. Moreover, in the series on HIF1-alpha, the EC50 was 3.1 µM. This compound also yielded an EC50 in series [2] of 2.1 µM.
Taken in the same sequence, the figures for `CCN(c1ccccc1)S(=O)(=O)c1ccc(-n2[nH]c(C)c(Cc3cc(OC)cc(OC)c3)c2=O)nc1` [Compound 47] were 162 °C, 2 µM, 1.1 µM and 2.8 µM.
In the same order, the values of `CCN(c1ccccc1)S(=O)(=O)c1ccc(-n2[nH]c(C)c(Cc3ccc(O)cc3)c2=O)nc1` [Compound 48] are 208 °C, 1.1 µM, 4.3 µM and 1.9 µM.
In the same order, the values of `CCN(c1ccccc1)S(=O)(=O)c1ccc(-n2[nH]c(C)c(Cc3cccc(N(C)C)c3)c2=O)nc1` [Compound 53, 6-{4-[3-(dimethylamino)benzyl]-3-methyl-5-oxo-2,5-dihydro-1H-pyrazol-1-yl}-N-ethyl-N-phenylpyridine-3-sulfonamide] are 122 °C, 0.9 µM, 2.6 µM and 3.2 µM.
In turn, `CCN(c1ccccc1)S(=O)(=O)c1ccc(-n2[nH]c(C)c(Cc3ccc(OC)cc3)c2=O)nc1` [Compound 54, N-ethyl-6-[4-(4-methoxybenzyl)-3-methyl-5-oxo-2,5-dihydro-1H-pyrazol-1-yl]-N-phenylpyridine-3-sulfonamide] gave a melting point of 188 °C. Moreover, the EC50 in series [1] amounted to 0.45 µM. This compound gave a concentration for a half-maximal effect (EC50) with HIF1-alpha of 6.4 µM. Moreover, in series [2], the midpoint of the response, the EC50, lay at 0.3 µM.
Take `CCN(c1ccccc1)S(=O)(=O)c1ccc(-n2[nH]c(C)c(Cc3cccc(OCCN(C)C)c3)c2=O)nc1` [Compound 56, 6-(4-{3-[2-(dimethylamino)ethoxy]benzyl}-3-methyl-5-oxo-2,5-dihydro-1H-pyrazol-1-yl)-N-ethyl-N-phenylpyridine-3-sulfonamide hydrochloride]: the results for the concentration for a half-maximal effect (EC50) (in series [1]; in the series on HIF1-alpha; in series [2]) were 2 µM, 2.1 µM and 2.5 µM, respectively.
Compound `CCN(c1ccccc1)S(=O)(=O)c1ccc(-n2[nH]c(C)c(CCc3ccccc3)c2=O)nc1` [Compound 74, N-ethyl-6-[3-methyl-5-oxo-4-(2-phenylethyl)-2,5-dihydro-1H-pyrazol-1-yl]-N-phenylpyridine-3-sulfonamide] registered a melting point of 158 °C. The midpoint of the response in series [1], the EC50, lay at 0.3 µM. Moreover, in the series on HIF1-alpha, the EC50 was determined as 3.7 µM.
On to `CCN(c1ccccc1)S(=O)(=O)c1ccc(-n2[nH]cc(Cc3ccccc3)c2=O)nc1` [Compound 93, 6-(4-benzyl-5-oxo-2,5-dihydro-1H-pyrazol-1-yl)-N-ethyl-N-phenylpyridine-3-sulfonamide], for which the results for the concentration for a half-maximal effect (EC50) (in series [1]; in the series with HIF1-alpha; in series [2]) were 0.4 µM, 0.35 µM and 0.4 µM, respectively.
`CC(C)(C)NS(=O)(=O)c1ccc(-n2[nH]cc(Cc3cccnc3)c2=O)nc1` [Compound 98B, N-tert-butyl-6-[5-oxo-4-(pyridin-3-ylmethyl)-2,5-dihydro-1H-pyrazol-1-yl]pyridine-3-sulfonamide hydrochloride] displayed an EC50 in the series on HIF1-alpha of 2.5 µM.
